# Laboratory results: ChEMBL document CHEMBL3997833, “Efficient synthesis of α-fluoromethylhistidine di-hydrochloride and demonstration of its efficacy as a glutathione S-transferase inhibitor” (Bioorg Med Chem Lett, 2017)
# Columns and labels:
# [1] = tested on: GST (glutathione S-transferase); assay: (§1) Inhibition of Schistosoma japonicum C-terminal His6-tagged GST expressed in Escherichia coli BL21(DE3) assessed as reduction in GSH transfer activity by measuring residual activity at 150 uM using GSH/CDNB co-substrate mixture preincubated for 10 mins followed by substrate addition by colorimetric method relative to control; settings: probe GSH/CDNB co-substrate mixture, read-out: Activity
# [2] = tested on: GST (glutathione S-transferase); assay: as §1, with “10 mM” for “150 uM”; settings: probe GSH/CDNB co-substrate mixture, read-out: Activity
activity at 10000 µM [2],SMILES,activity at 150 µM [1]
,N[C@@](CF)(Cc1cnc[nH]1)C(=O)O,57%
33%,Nc1ccc(C(=O)O)cc1 [AMINOBENZOIC ACID],
